Reference: ChEMBL document CHEMBL1166016, “Design, synthesis, and biological evaluation of novel coxsackievirus B3 inhibitors” (Bioorg Med Chem, 2010)

Assays:
[1] = tested on: Coxsackievirus B3; assay: Antiviral activity against Coxsackievirus B3 infected in african green monkey […] assessed as inhibition of virus-induced cytopathic effect after 3 days by MTS assay; type: functional, organism-based; conditions: for EC50: Enterovirus B, 72 h
[2] = Cytotoxicity against african green monkey Vero cells after 3 days by MTS assay; type: cell-based; conditions: chlorocebus sabaeus

Row | Structure (SMILES) | EC50 [1] [µM] | CC50 at 72 h [2] [µM] | EC90 [1] [µM]
1 | OCC1CC2CC1C(n1cnc3c(Cl)ncnc31)C2 (stereo not drawn) | 0.98 | > 50 | 
2 | OCC1C2COC3C2OC1C3n1cnc2c(Cl)ncnc21 (stereo not drawn) | 1.86 | > 50 | 
3 | C[C@@H](NC(=O)c1cccc(-c2cnc(-c3cc4ccccc4cn3)[nH]2)c1)c1ccc(F)cc1 | 1.2 | > 50 | 
4 | ClCC1C2COC3C2CC1C3n1cnc2c(Cl)ncnc21 (stereo not drawn) | 1 | > 50 | 
5 | ClCC1C2COC3C2OC1C3n1cnc2c(Cl)ncnc21 (stereo not drawn) | 0.88 | > 50 | 
6 | OCC1C2COC3C2CC1C3n1cnc2c(Cl)ncnc21 (stereo not drawn) | 1.13 | > 50 | 
7 | OCC1CC2CC1CC2n1cnc2c(Cl)ncnc21 (stereo not drawn) | 0.91 | > 50 | 
8 | Clc1ncnc2c1ncn2[C@@H]1CC2CC1[C@@H](n1cnc3c(Cl)ncnc31)C2 | 7.83 | > 50 | 
9 | Clc1ncnc2c1ncn2C[C@@H]1C[C@H]2CC[C@@H]1C2 (relative stereo) | 3.83 | > 50 | 9.43
10 | Clc1ncnc2c1ncn2[C@@H]1C[C@@H]2C[C@H]1[C@@H]1O[C@@H]21 (relative stereo) | 1.03 | > 50 | 3.46
11 | O[C@H]1C[C@H]2C[C@@H]1C[C@@H]2n1cnc2c(Cl)ncnc21 (relative stereo) | 2.44 | > 50 | 
12 | Clc1ncnc2c1ncn2[C@H]1C[C@H]2C[C@@H]1C[C@@H]2n1cnc2c(Cl)ncnc21 (relative stereo) | 22.5 | > 50 | 
13 | Clc1ncnc2c1ncn2[C@H]1C[C@H]2C[C@@H]1c1ccccc12 (relative stereo) | 0.66 | > 50 | >50
14 | Clc1ncnc2c1ncn2[C@H]1C[C@H]2C[C@@H]1c1cc3ccccc3cc12 (relative stereo) | > 50 | > 50 | >50
15 | Clc1ncnc2c1ncn2[C@H]1C2C3C[C@H]1C[C@H]32 (relative stereo) | 1.52 | 43.9 | 
16 | Clc1ncnc2c1ncn2[C@H]1C[C@H]2C[C@@H]1C[C@@H]2c1ccccc1 (relative stereo) | 5.72 | 17 | 
17 | Clc1ncnc2c1ncn2C[C@H]1C[C@@H]2C=C[C@H]1C2 (relative stereo) | 3.58 | > 50 | 8.49

Row | Structure (SMILES) | EC50 [1] [µM] | CC50 at 72 h [2] [µM] | EC90 [1] [µM]
18 | CC1(C)[C@@H]2CC[C@@]1(C)[C@H](n1cnc3c(Cl)ncnc31)C2 (relative stereo) | 3.47 | > 50 | 36.26
19 | CC1(C)[C@H]2CC[C@H](C2)[C@@H]1n1cnc2c(Cl)ncnc21 (relative stereo) | 10.9 | > 50 | >50
20 | Clc1ncnc2c1ncn2[C@H]1C[C@@H]2C=C[C@H]1C2 (relative stereo) | 2.43 | > 50 | 5.87
21 | F[C@H]1C[C@H]2C[C@@H]1C[C@@H]2n1cnc2c(Cl)ncnc21 (relative stereo) | 0.95 | > 50 | 1.96
22 | O=C1C[C@@H]2C[C@H]1[C@H](n1cnc3c(Cl)ncnc31)C2 (relative stereo) | 1.57 | > 50 | 
23 | O[C@@H]1C[C@H]2C[C@@H]1[C@H](n1cnc3c(Cl)ncnc31)C2 (relative stereo) | 1.3 | > 50 | 
24 | FC1(F)C[C@@H]2C[C@@H](n3cnc4c(Cl)ncnc43)[C@H]1C2 (relative stereo) | 1.16 | > 50 | 34.4
25 | Clc1ncnc2c1ncn2[C@H]1[C@@H]2C[C@@H]3CO[C@H]1[C@H]3C2 (relative stereo) | 1.27 | > 50 | 
26 | O[C@@H]1[C@@H]2C[C@H]([C@@H]1O)[C@@H](n1cnc3c(Cl)ncnc31)C2 (relative stereo) | 2.26 | > 50 | 36.52
27 | O[C@@H]1C[C@H]2C[C@@H]1[C@@H](n1cnc3c(Cl)ncnc31)C2 (relative stereo) | 1.1 | 47.9 | 
28 | Clc1ncnc2c1ncn2[C@H]1C[C@H]2C[C@@H]1[C@H](c1ccccc1)C2 (relative stereo) | 2.98 | 13.4 | 
29 | Clc1ncnc2c1ncn2[C@H]1C[C@H]2C[C@@H]1[C@@H]1CCC[C@H]21 (relative stereo) | 1.9 | 43.4 | 
30 | Clc1ncnc2c1ncn2[C@@H]1[C@@H]2C[C@@H]3[C@H]1CO[C@@H]3C2 (relative stereo) | 1 | > 50 | 
31 | O=C1C[C@H]2C[C@@H]1C[C@@H]2n1cnc2c(Cl)ncnc21 (relative stereo) | 0.9 | > 50 | 1.78
32 | O[C@H]1C[C@@H]2C[C@@H]1C[C@H]2n1cnc2c(Cl)ncnc21 (relative stereo) | 1.05 | > 50 | 
33 | FC1(F)C[C@H]2C[C@H]1C[C@@H]2n1cnc2c(Cl)ncnc21 (relative stereo) | 1 | > 50 | 
